Data reported in the NIST ThermoML archive (doi:10.1016/j.jct.2012.03.031).
Several values for one entry are separate records, joined by “and”; a condition that tells them apart may be missing. Equal entries are not always repeated. Numbers after ± are expanded uncertainties.

Test: molar heat capacity at constant pressure
Details: 101.33 kPa

CCCCc1ccc(C(=O)Oc2ccc(C#N)c(F)c2)cc1 [4-cyano-3-fluorophenyl 4-butylbenzoate]
Details	molar heat capacity at constant pressure
99.68 K, Crystal 1, Small (less than 1 g) adiabatic calorimetry	155.3 ± 1.1 J/K/mol
100 K, Crystal 1, Vacuum adiabatic calorimetry	155.66 ± 0.99 J/K/mol
100 K, Crystal 2, Vacuum adiabatic calorimetry	162.05 ± 1 J/K/mol
100.8 K, Crystal 1, Small (less than 1 g) adiabatic calorimetry	156.84 ± 1.1 J/K/mol
100.83 K, Crystal 2, Small (less than 1 g) adiabatic calorimetry	163.07 ± 1.2 J/K/mol
101.98 K, Crystal 1, Small (less than 1 g) adiabatic calorimetry	157.93 ± 1.1 J/K/mol
102.45 K, Crystal 1, Small (less than 1 g) adiabatic calorimetry	158.74 ± 1.1 J/K/mol
102.94 K, Crystal 2, Small (less than 1 g) adiabatic calorimetry	165.76 ± 1.2 J/K/mol
104.1 K, Crystal 1, Small (less than 1 g) adiabatic calorimetry	160.69 ± 1.2 J/K/mol
104.29 K, Crystal 1, Small (less than 1 g) adiabatic calorimetry	160.64 ± 1.2 J/K/mol
105.07 K, Crystal 2, Small (less than 1 g) adiabatic calorimetry	168.36 ± 1.2 J/K/mol
105.76 K, Crystal 1, Small (less than 1 g) adiabatic calorimetry	162.57 ± 1.2 J/K/mol
106.6 K, Crystal 1, Small (less than 1 g) adiabatic calorimetry	163.27 ± 1.2 J/K/mol
107.21 K, Crystal 2, Small (less than 1 g) adiabatic calorimetry	170.99 ± 1.2 J/K/mol
107.43 K, Crystal 1, Small (less than 1 g) adiabatic calorimetry	164.48 ± 1.2 J/K/mol
108.92 K, Crystal 1, Small (less than 1 g) adiabatic calorimetry	165.88 ± 1.2 J/K/mol
109.11 K, Crystal 1, Small (less than 1 g) adiabatic calorimetry	166.36 ± 1.2 J/K/mol
109.36 K, Crystal 2, Small (less than 1 g) adiabatic calorimetry	173.6 ± 1.2 J/K/mol
110 K, Crystal 1, Vacuum adiabatic calorimetry	167.09 ± 1.1 J/K/mol
110 K, Crystal 2, Vacuum adiabatic calorimetry	174.41 ± 1.1 J/K/mol
110.8 K, Crystal 1, Small (less than 1 g) adiabatic calorimetry	168.33 ± 1.2 J/K/mol
111.24 K, Crystal 1, Small (less than 1 g) adiabatic calorimetry	168.49 ± 1.2 J/K/mol
111.51 K, Crystal 2, Small (less than 1 g) adiabatic calorimetry	176.31 ± 1.3 J/K/mol
112.5 K, Crystal 1, Small (less than 1 g) adiabatic calorimetry	170.17 ± 1.2 J/K/mol
113.57 K, Crystal 1, Small (less than 1 g) adiabatic calorimetry	171.15 ± 1.2 J/K/mol
113.68 K, Crystal 2, Small (less than 1 g) adiabatic calorimetry	178.98 ± 1.3 J/K/mol
114.2 K, Crystal 1, Small (less than 1 g) adiabatic calorimetry	172.16 ± 1.2 J/K/mol
115.87 K, Crystal 2, Small (less than 1 g) adiabatic calorimetry	181.77 ± 1.3 J/K/mol
115.91 K, Crystal 1, Small (less than 1 g) adiabatic calorimetry	173.74 ± 1.2 J/K/mol and 174.07 ± 1.2 J/K/mol
117.64 K, Crystal 1, Small (less than 1 g) adiabatic calorimetry	175.95 ± 1.2 J/K/mol
118.06 K, Crystal 2, Small (less than 1 g) adiabatic calorimetry	184.44 ± 1.3 J/K/mol
118.26 K, Crystal 1, Small (less than 1 g) adiabatic calorimetry	176.37 ± 1.3 J/K/mol
119.36 K, Crystal 1, Small (less than 1 g) adiabatic calorimetry	177.93 ± 1.3 J/K/mol
120 K, Crystal 1, Vacuum adiabatic calorimetry	178.29 ± 1.1 J/K/mol
120 K, Crystal 2, Vacuum adiabatic calorimetry	186.87 ± 1.2 J/K/mol
120.27 K, Crystal 2, Small (less than 1 g) adiabatic calorimetry	187.2 ± 1.3 J/K/mol
120.61 K, Crystal 1, Small (less than 1 g) adiabatic calorimetry	178.97 ± 1.3 J/K/mol
121.1 K, Crystal 1, Small (less than 1 g) adiabatic calorimetry	179.82 ± 1.3 J/K/mol
122.48 K, Crystal 2, Small (less than 1 g) adiabatic calorimetry	189.96 ± 1.4 J/K/mol
122.85 K, Crystal 1, Small (less than 1 g) adiabatic calorimetry	181.85 ± 1.3 J/K/mol
122.98 K, Crystal 1, Small (less than 1 g) adiabatic calorimetry	181.61 ± 1.3 J/K/mol
124.61 K, Crystal 1, Small (less than 1 g) adiabatic calorimetry	182.88 ± 1.3 J/K/mol
124.71 K, Crystal 2, Small (less than 1 g) adiabatic calorimetry	192.76 ± 1.4 J/K/mol
125.35 K, Crystal 1, Small (less than 1 g) adiabatic calorimetry	184.23 ± 1.3 J/K/mol
126.37 K, Crystal 1, Small (less than 1 g) adiabatic calorimetry	185.75 ± 1.3 J/K/mol
126.95 K, Crystal 2, Small (less than 1 g) adiabatic calorimetry	195.55 ± 1.4 J/K/mol
127.73 K, Crystal 1, Small (less than 1 g) adiabatic calorimetry	186.92 ± 1.3 J/K/mol
128.14 K, Crystal 1, Small (less than 1 g) adiabatic calorimetry	187.6 ± 1.3 J/K/mol
129.2 K, Crystal 2, Small (less than 1 g) adiabatic calorimetry	198.34 ± 1.4 J/K/mol
129.93 K, Crystal 1, Small (less than 1 g) adiabatic calorimetry	189.59 ± 1.3 J/K/mol
130 K, Crystal 1, Vacuum adiabatic calorimetry	189.39 ± 1.2 J/K/mol
130 K, Crystal 2, Vacuum adiabatic calorimetry	199.38 ± 1.3 J/K/mol
130.12 K, Crystal 1, Small (less than 1 g) adiabatic calorimetry	189.53 ± 1.3 J/K/mol
131.47 K, Crystal 2, Small (less than 1 g) adiabatic calorimetry	201.3 ± 1.4 J/K/mol
131.72 K, Crystal 1, Small (less than 1 g) adiabatic calorimetry	191.62 ± 1.4 J/K/mol
132.53 K, Crystal 1, Small (less than 1 g) adiabatic calorimetry	192.14 ± 1.4 J/K/mol
133.51 K, Crystal 1, Small (less than 1 g) adiabatic calorimetry	193.32 ± 1.4 J/K/mol
133.74 K, Crystal 2, Small (less than 1 g) adiabatic calorimetry	204.25 ± 1.4 J/K/mol
134.94 K, Crystal 1, Small (less than 1 g) adiabatic calorimetry	194.79 ± 1.4 J/K/mol
135.4 K, Crystal 1, Small (less than 1 g) adiabatic calorimetry	195.42 ± 1.4 J/K/mol
136.03 K, Crystal 2, Small (less than 1 g) adiabatic calorimetry	207.21 ± 1.5 J/K/mol
137.37 K, Crystal 1, Small (less than 1 g) adiabatic calorimetry	197.39 ± 1.4 J/K/mol and 197.54 ± 1.4 J/K/mol
138.33 K, Crystal 2, Small (less than 1 g) adiabatic calorimetry	210.2 ± 1.5 J/K/mol
139.32 K, Crystal 1, Small (less than 1 g) adiabatic calorimetry	199.71 ± 1.4 J/K/mol
139.8 K, Crystal 1, Small (less than 1 g) adiabatic calorimetry	200.05 ± 1.4 J/K/mol
140 K, Crystal 1, Vacuum adiabatic calorimetry	200.27 ± 1.2 J/K/mol
140 K, Crystal 2, Vacuum adiabatic calorimetry	212.43 ± 1.3 J/K/mol
140.64 K, Crystal 2, Small (less than 1 g) adiabatic calorimetry	213.3 ± 1.5 J/K/mol
